The text below walks through data of ChEMBL document CHEMBL1125482, “Pharmacokinetics of catechol cephalosporins. The effect of incorporating substituents into the catechol moiety on pharmacokinetics in a marmoset model” (J Med Chem, 1992).

In brackets after ≈: the same amount, converted by molar mass.

Data set [1] is filed under the species Homo sapiens. The data set is described as follows: Compound was tested for serum protein binding in human blood. Type of data set: functional.
Data set [2] has as its system Staphylococcus aureus. The data set is described as follows: microbe, parasite or virus in culture.
Description: Compound was tested for antimicrobial activity against Staphylococcus aureus Oxford strain
In data set [3] the test system is Pseudomonas aeruginosa. The data set is described as follows: microbe, parasite or virus in culture.
Description: Compound was tested for antimicrobial activity against Pseudomonas aeruginosa PU21 strain
The nature of data set [4]: Urinary recovery in marmosets (IV dose). The format is ADME, organism-based. Conditions: callithrix, urine, read-out: Recovery.
Data set [5] concerns Staphylococcus aureus. As to the kind of experiment: microbe, parasite or virus in culture. This is another data set of the same source.
Description: Compound was tested for antimicrobial activity against Staphylococcus aureus penicillin sensitive Staphylococcus aureus (147N) strain
The nature of a further data set: in vivo. The following applies: callithrix, serum, iv.
In data set [6] the test system is Enterobacter cloacae. The data set is described as follows: microbe, parasite or virus in culture.
Description: Compound was tested for antimicrobial activity against Enterobacter cloacae constitutive derepressed type I beta-lactamase producer (P99+) strain
The test system of data set [7] is Mus musculus. As to the kind of experiment: Compound was evaluated in vivo for antibacterial activity against Pseudomonas aeruginosa (strain 101010) in mice. The format is functional. The following applies: read-out: PD50.
The species named for another data set is Canis familiaris. Conditions: dog, in vivo, iv.
Data set [8] deals with Pseudomonas aeruginosa. As to the kind of experiment: microbe, parasite or virus in culture. This is another data set of the same source.
In data set [9] the test system is Escherichia coli. As to the kind of experiment: microbe, parasite or virus in culture.
Description: Compound was tested for antimicrobial activity against Escherichia coli DC2 strain (permeability mutant)
Data set [10] relates to Escherichia coli. The data set is described as follows: microbe, parasite or virus in culture. The source holds these as a separate data set.
Description: Compound was tested for antimicrobial activity against Escherichia coli DC0 strain (parent organism)
Data set [11] deals with Enterobacter cloacae. As to the kind of experiment: microbe, parasite or virus in culture. This is another data set of the same source.
Description: Compound was tested for antimicrobial activity against Enterobacter cloacae inducible type I beta-lactamase producer (P99-) strain
The species named for data set [12] is Homo sapiens. The data set is described as follows: Compound is evaluated for serum protein binding in human blood […]. The format is functional.
Data set [13] has as its system Pseudomonas aeruginosa. The data set is described as follows: Compound was tested for antimicrobial activity against Pseudomonas aeruginosa constitutive derepressed type I beta-lactamase producer (18SH) strain. The format is functional.
The test system of data set [14] is Mus musculus. The data set is described as follows: Compound was evaluated in vivo for antibacterial activity against Pseudomonas aeruginosa (strain 101010) in mice; range 1.0-6.0 mg/Kg. The format is functional.

Description for in vivo: Serum T1/2 in marmosets (IV dose)
Description for physchem: Dissociation constant (pKa)

A word on the pKa: it is the pH at which an ionisable group is half protonated. High values mean a weaker acid or stronger base, low ones a stronger acid or weaker base. For orientation: half-life means the time in which the quantity being followed falls by half. Lower therefore signals fast loss. Turning to `CCn1cc(C(=O)NCC2=C(C(=O)O)N3C(=O)[C@@H](NC(=O)/C(=N\OC(C)(C)C(=O)O)c4csc(N)n4)[C@H]3SC2)c(=O)c2cc(O)c(O)cc21`, the pKa in the data set “physchem” is 7.2. For the same compound, in the data set listed under Homo sapiens [1], the Activity was determined as 99%. Moreover, the MIC in the data set on Staphylococcus aureus [2] was 16 µg/mL (≈ 22.4 µM); in the data set on Pseudomonas aeruginosa [3] it was 0.06 µg/mL (≈ 0.0838 µM); against Staphylococcus aureus [5], 16 µg/mL (≈ 22.4 µM); in the data set with Enterobacter cloacae [6] it was 0.25 µg/mL (≈ 0.349 µM); against Pseudomonas aeruginosa [8] it was below 0.008 µg/mL; against Escherichia coli [9], 0.008 µg/mL (≈ 0.0112 µM). The MIC is below 0.008 µg/mL with Escherichia coli [10] and 0.06 µg/mL (≈ 0.0838 µM) against Enterobacter cloacae [11]. For the same compound, the dose excreted in data set [4] was 17.5%. The compound also showed a half-life in the data set “in vivo” of 3.5 h. Besides, the ED50 in the data set with Mus musculus [7] was determined as 0.01 mg/kg. Also, the AUC in the data set filed under Canis familiaris was 238.5 mg/h/L.
`CO/N=C(\C(=O)N[C@@H]1C(=O)N2C(C(=O)O)=C(CSc3nc(=O)c(O)nn3C)CS[C@H]12)c1csc(N)n1` [CEFTRIAXONE]: the dose excreted in [4] was 25.4%. Further, the Activity in the data set filed under Homo sapiens [12] was 94.5%.
As for `CC(C)(O/N=C(\C(=O)N[C@@H]1C(=O)N2C(C(=O)O)=C(CNC(=O)c3ccc(O)c(O)c3)CS[C@H]12)c1csc(N)n1)C(=O)O`, in the data set “physchem”, the pKa stood at 8.5. Also, the Activity in the data set listed under Homo sapiens [1] is 96.3%. In addition, the MIC came out at 8 µg/mL (≈ 12.9 µM) in the data set on Staphylococcus aureus [2]; 0.015 µg/mL (≈ 0.0242 µM) against Pseudomonas aeruginosa [3]; 16 µg/mL (≈ 25.8 µM) with Staphylococcus aureus [5]; 16 µg/mL (≈ 25.8 µM) in the data set with Enterobacter cloacae [6]; 0.008 µg/mL (≈ 0.0129 µM) with Escherichia coli [9]; 0.06 µg/mL (≈ 0.0967 µM) against Pseudomonas aeruginosa [13]. The MIC in the data set with Escherichia coli [10] was below 0.008 µg/mL; against Enterobacter cloacae [11], 0.0125 µg/mL (≈ 0.0201 µM). In addition, the dose excreted in [4] worked out at 44.8%. In addition, the half-life in “in vivo” is 1.25 h. In the data set filed under Canis familiaris, this compound gave an AUC of 27.2 mg/h/L.
In turn, `CC(C)(O/N=C(\C(=O)N[C@@H]1C(=O)N2C(C(=O)O)=C(CNC(=O)c3cc(O)c(O)c(C#N)c3)CS[C@H]12)c1csc(N)n1)C(=O)O` came in with a pKa in the data set “physchem” of 5.5. The same compound had an Activity in the data set filed under Homo sapiens [1] of 96.7%. In data set [4], the dose excreted is 8.7%. For the same compound, the half-life in the data set “in vivo” was 5.3 h. Besides, in the data set with Mus musculus [7], the ED50 worked out at 0.013 mg/kg. Also, in the data set filed under Canis familiaris, the AUC was 394.5 mg/h/L.
Consider `CC(C)(O/N=C(\C(=O)N[C@@H]1C(=O)N2C(C(=O)[O-])=C(C[n+]3ccccc3)CS[C@H]12)c1csc(N)n1)C(=O)O` [CEFTAZIDIME], for which the MIC in the data set with Staphylococcus aureus [2] is 4 µg/mL (≈ 7.32 µM); with Pseudomonas aeruginosa [3], 1 µg/mL (≈ 1.83 µM); with Staphylococcus aureus [5], 8 µg/mL (≈ 14.6 µM); in the data set on Enterobacter cloacae [6], 32 µg/mL (≈ 58.5 µM); in the data set on Pseudomonas aeruginosa [8] it was 16 µg/mL (≈ 29.3 µM); against Escherichia coli [9] it was 0.06 µg/mL (≈ 0.11 µM). The MIC in the data set on Escherichia coli [10] and against Enterobacter cloacae [11] was 0.125 µg/mL (≈ 0.229 µM) each time. In the data set “in vivo”, this compound gave a half-life of 0.7 h. The compound further displayed an AUC in the data set listed under Canis familiaris of 14 mg/h/L. In the data set on Mus musculus [14], this compound registered a PD50 of 1 µg/mL.
In the case of `CC(C)(O/N=C(\C(=O)N[C@@H]1C(=O)N2C(C(=O)O)=C(CNC(=O)c3cc(Cl)c(O)c(O)c3Cl)CS[C@H]12)c1csc(N)n1)C(=O)O`, the pKa in the data set “physchem” was 6.3. Also, the Activity in the data set filed under Homo sapiens [1] came to 98.7%. Moreover, the dose excreted in data set [4] was 16.2%. For the same compound, in the data set “in vivo”, the half-life is 8.2 h. Moreover, the ED50 in the data set on Mus musculus [7] was 0.003 mg/kg. This compound also returned an AUC in the data set filed under Canis familiaris of 461 mg/h/L.
In the data set “physchem”, `CC(C)(O/N=C(\C(=O)N[C@@H]1C(=O)N2C(C(=O)O)=C(CNC(=O)c3cc(O)c(O)c(Cl)c3)CS[C@H]12)c1csc(N)n1)C(=O)O` displayed a pKa of 7. The half-life in “in vivo” is 4.6 h. For the same compound, the ED50 in the data set on Mus musculus [7] is 0.004 mg/kg. This compound showed an AUC in the data set listed under Canis familiaris of 638.3 mg/h/L.
With `CC(C)(O/N=C(\C(=O)N[C@@H]1C(=O)N2C(C(=O)O)=C(CNC(=O)c3cc(O)c(O)c(Br)c3)CS[C@H]12)c1csc(N)n1)C(=O)O`, in “physchem”, the pKa is 6.9. In the data set listed under Homo sapiens [1], this compound had an Activity of 99.2%. In addition, the MIC was 16 µg/mL (≈ 22.9 µM) in the data set on Staphylococcus aureus [2]; below 0.008 µg/mL in the data set on Pseudomonas aeruginosa [3]; 16 µg/mL (≈ 22.9 µM) with Staphylococcus aureus [5]; 2 µg/mL (≈ 2.86 µM) against Enterobacter cloacae [6]; 0.015 µg/mL (≈ 0.0214 µM) against Pseudomonas aeruginosa [8]; 0.03 µg/mL (≈ 0.0429 µM) against Enterobacter cloacae [11]. The dose excreted in data set [4] came out at 13.9%. This compound showed a half-life in the data set “in vivo” of 2.9 h. In addition, the ED50 in the data set with Mus musculus [7] worked out at 0.024 mg/kg. Besides, in the data set filed under Canis familiaris, the AUC was 137.1 mg/h/L.
